Data as given in patent publication US20110098278A1 (priority 2009, published 2011).
Where “and” joins values, the source holds several entries; their conditions need not be identical. Identical values can stand only once. Counter-ions that a name gives are not always drawn. Like-named read-outs stand apart in the source and are kept apart here.

Columns and labels:
[1] = target: T1, human acetylcholine esterase (Homo sapiens, UniProt P22303); test: Human acetylcholine esterase inhibition (human recombinant, HEK-293 cells; Ellman photometry); assay type: biochemical; settings: for inhibitory action toward human acetylcholine esterase (in words): in contrast to galantamine
T1 construct: host or cells: HEK-293 cells
T1 sequence (P22303 32-614): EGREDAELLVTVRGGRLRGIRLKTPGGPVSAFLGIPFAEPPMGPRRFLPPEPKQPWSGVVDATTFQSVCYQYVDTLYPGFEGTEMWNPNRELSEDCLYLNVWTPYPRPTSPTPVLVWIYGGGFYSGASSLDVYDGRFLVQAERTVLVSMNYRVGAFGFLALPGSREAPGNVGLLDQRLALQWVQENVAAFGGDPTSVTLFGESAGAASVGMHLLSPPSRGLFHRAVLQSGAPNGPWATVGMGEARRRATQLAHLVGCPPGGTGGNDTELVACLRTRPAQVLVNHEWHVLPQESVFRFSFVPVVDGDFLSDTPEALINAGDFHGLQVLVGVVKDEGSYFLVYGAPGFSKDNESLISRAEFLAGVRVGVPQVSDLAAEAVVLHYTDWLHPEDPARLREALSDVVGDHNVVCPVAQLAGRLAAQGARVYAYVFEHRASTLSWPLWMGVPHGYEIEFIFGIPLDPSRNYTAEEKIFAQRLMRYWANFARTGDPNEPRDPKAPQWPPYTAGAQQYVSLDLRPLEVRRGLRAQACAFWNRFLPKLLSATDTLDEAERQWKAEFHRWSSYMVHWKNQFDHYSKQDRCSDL

[2] = system: rabbit stomach circular smooth muscle; test: Ex vivo rabbit stomach circular smooth muscle, electrical field stimulation; assay type: cell-based; settings: rabbit stomach strips under EFS; 100 nM to 100 μM
[3] = system: human stomach circular smooth muscle; test: Ex vivo human stomach circular smooth muscle, electrical field stimulation; assay type: cell-based; settings: human stomach strips under EFS; 100 nM to 100 μM
ferret = test: Emetic activity (retching and vomiting) in the ferret
Sprague Dawley rat = test: PICA behavior (kaolin consumption) in the Sprague Dawley rat as surrogate for emesis; assay type: in vivo
Description: This is a well established model for this purpose in the rat (Takeda N et al (1993) 45 817-21).
Once determined, a comparison was made of the effects of these doses on kaolin consumption over a 0-96 hour period in 24 h increments.
In detail groups of 10 male Sprague Dawley rats were habituated to kaolin for 3 days, then singly housed in grid-bottomed cages and habituated for a further 2 days prior to dosing. On the day of drug administration, the animals were food-deprived for 1 h prior to dosing. […] Access to a weighed quantity of food and kaolin was then restored. Food and kaolin was weighed 24, 48, 72 and 96 h after dosing.

[4] = human recombinant (HEK-293 cells), AMTCh 50 μM, 30 min./37° C., read-out: IC50 for inhibition of human acetyl choline esterase
[5] = USP SGF pH 1.2, 37 deg. C., 0 hours
[6] = USP SGF pH 1.2, 37 deg. C., 1 hour
[7] = USP SIF pH 6.8, 37 deg. C., 0 hours
[8] = USP SIF pH 6.8, 37 deg. C., 2 hours
[9] = 40 mg/kg as base p.o., 2 hr. observation, individual ferrets
[10] = 20 mg (free base)/kg oral or similar molar dose
[11] = 20 mg/kg p.o., 2 hr. observation, individual ferrets, listed as Galantamine valine ester tartrate

Question: What does the source list for `COc1ccc2c3c1O[C@H]1C[C@@H](OC(=O)NCc4ccc(C(=O)O)cc4)C=C[C@@]31CCN(C)C2` [Galantamine para-amino methyl benzoic acid carbamate]?
Answer: IC50 [1, 4]: 46 µM; % Prodrug Remaining [5]: 100%; % Prodrug Remaining [6]: 100%; % Prodrug Remaining [7]: 100%; % Prodrug Remaining [8]: 100%

Question: With `COc1ccc2c3c1O[C@H]1C[C@@H](OC(=O)CCCC(=O)Nc4ccc(C(=O)O)cc4)C=C[C@@]31CCN(C)C2` [Galantamine [glutaryl-PABA] ester, galantamine (glutaryl-PABA) ester trifluoroacetate] as the compound, how does the IC50 [1] read?
Answer: Its IC50 is > 100 µM.

Question: And the “inhibitory action toward human acetylcholine esterase (in words)” value [1]?
Answer: The value was “significantly less inhibitory actions”.

Question: With `COc1ccc2c3c1O[C@H]1C[C@@H](OC(=O)CCC(=O)N[C@H](C(=O)O)C(C)C)C=C[C@@]31CCN(C)C2.O=C(O)C(F)(F)F` [Galantamine succinyl valine ester, galantamine-[succinyl-(S)-valine]ester trifluoroacetate] as the compound, how does the “stimulation of smooth muscle contractions (change in force production)” value [2] read?
Answer: The value was “complete absence of any such effect”.

Question: And the “stimulation of smooth muscle contractions (change in force production)” value [3]?
Answer: Its value is “complete absence of any such effect”.

Question: What about the “Time (min) to onset of: Retching” value (ferret; [9]) of the same compound?
Answer: The value was >120 min.

Question: What about the “Time (min) to onset of: Vomiting” value (ferret; [9]) of the same compound?
Answer: The value was >120 min.

Question: What about the “Total number of individual incidences of: Retching” value (“Total number … Retching” for short) (ferret; [9]) of the same compound?
Answer: Its value is 0.

Question: What about the “Total number of individual incidences of: Vomiting” value (from here on “Total number … Vomiting”) (ferret; [9]) of the same compound?
Answer: Its value is 0.

Question: What about the “Time (min) to onset of: Retching” value (ferret; 40 mg/kg as base p.o., Mean) of the same compound?
Answer: The value was >120 min.

Question: And the “Time (min) to onset of: Vomiting” value (ferret; 40 mg/kg as base p.o., Mean)?
Answer: Its value is >120 min.

Question: What about the “Total number … Retching” value (ferret; 40 mg/kg as base p.o., Mean) of the same compound?
Answer: The value was 0.

Question: And the “Total number … Vomiting” value (ferret; 40 mg/kg as base p.o., Mean)?
Answer: Its value is 0.

Question: And the “retching or vomiting (in words)” value (ferret; oral 40 mg galantamine (free base equivs)/kg)?
Answer: The value was “no retching or vomiting at all was observed”.

Question: And the IC50 [1]?
Answer: Its IC50 is > 100 µM.

Question: What about the “inhibitory action toward human acetylcholine esterase (in words)” value [1] of the same compound?
Answer: The value was “significantly less inhibitory actions”.

Question: What about the “Cumulative mean ± SD kaolin consumption” value (Sprague Dawley rat; 11.75 mg galantamine free base content/kg po, 24 h) of the same compound?
Answer: The value was 0.14 ± 0.20 g.

Question: What about the “Cumulative mean ± SD kaolin consumption” value (Sprague Dawley rat; 11.75 mg galantamine free base content/kg po, 48 h) of the same compound?
Answer: Its value is 0.29 ± 0.24 g.

Question: What about the “Cumulative mean ± SD kaolin consumption” value (Sprague Dawley rat; 11.75 mg galantamine free base content/kg po, 72 h) of the same compound?
Answer: The value was 0.48 ± 0.27 g.

Question: And the “Cumulative mean ± SD kaolin consumption” value (Sprague Dawley rat; 11.75 mg galantamine free base content/kg po, 96 h)?
Answer: Its value is 0.57 ± 0.40 g.

Question: And the “Cumulative mean ± SD kaolin consumption” value (Sprague Dawley rat; 23.5 mg galantamine free base content/kg po, 24 h)?
Answer: The value was 0.31 ± 0.53 g.

Question: What about the “Cumulative mean ± SD kaolin consumption” value (Sprague Dawley rat; 23.5 mg galantamine free base content/kg po, 48 h) of the same compound?
Answer: The value was 0.61 ± 0.69 g.

Question: And the “Cumulative mean ± SD kaolin consumption” value (Sprague Dawley rat; 23.5 mg galantamine free base content/kg po, 72 h)?
Answer: The value was 0.95 ± 0.96 g.

Question: And the “Cumulative mean ± SD kaolin consumption” value (Sprague Dawley rat; 23.5 mg galantamine free base content/kg po, 96 h)?
Answer: The value was 1.25 ± 1.31 g.

Question: What about the “Cumulative mean ± SD kaolin consumption” value (Sprague Dawley rat; 47 mg galantamine free base content/kg po, 24 h) of the same compound?
Answer: Its value is 0.15 ± 0.18 g.

Question: What about the “Cumulative mean ± SD kaolin consumption” value (Sprague Dawley rat; 47 mg galantamine free base content/kg po, 48 h) of the same compound?
Answer: The value was 0.40 ± 0.18 g.

Question: What about the “Cumulative mean ± SD kaolin consumption” value (Sprague Dawley rat; 47 mg galantamine free base content/kg po, 72 h) of the same compound?
Answer: The value was 0.63 ± 0.28 g.

Question: What about the “Cumulative mean ± SD kaolin consumption” value (Sprague Dawley rat; 47 mg galantamine free base content/kg po, 96 h) of the same compound?
Answer: The value was 0.91 ± 0.45 g.

Question: What about the “Cumulative mean ± SD kaolin consumption” value (Sprague Dawley rat; 47 mg galantamine free base content/kg po, 96 h, listed as GSVE) of the same compound?
Answer: The value was 0.91 ± 0.45 g.

Question: And the “kaolin consumption compared with vehicle alone (in words)” value (Sprague Dawley rat; oral, up to 47 mg (galantamine free base content)/kg)?
Answer: The value was “little evidence for any increase in kaolin consumption”.

Question: Which “Cumulative mean ± SD kaolin consumption” value (Sprague Dawley rat; positive control, 130 mg base/kg po, 24 h) does the source give for `[Cl-].[Li+]` [LiCl] here?
Answer: Its value is 3.33 ± 1.98 g.

Question: What about the “Cumulative mean ± SD kaolin consumption” value (Sprague Dawley rat; positive control, 130 mg base/kg po, 48 h) of the same compound?
Answer: The value was 3.71 ± 2.22 g.

Question: What about the “Cumulative mean ± SD kaolin consumption” value (Sprague Dawley rat; positive control, 130 mg base/kg po, 72 h) of the same compound?
Answer: The value was 4.42 ± 2.82 g.

Question: And the “Cumulative mean ± SD kaolin consumption” value (Sprague Dawley rat; positive control, 130 mg base/kg po, 96 h)?
Answer: The value was 4.82 ± 3.11 g.

Question: With galantamine-(S)-valine ester tartrate as the compound, how does the “animals dosed that retched” value (ferret; [10]) read?
Answer: The value was 45%.

Question: And the “animals dosed that vomited” value (ferret; [10])?
Answer: The value was 18%.

Question: For `COc1ccc2c3c1O[C@H]1C[C@@H](OC(=O)Nc4cccc(C(=O)O)c4)C=C[C@@]31CCN(C)C2` [Galantamine meta amino benzoic acid carbamate], which IC50 [1, 4] is on record?
Answer: Its IC50 is 26 µM.

Question: And the “% Prodrug Remaining” value [5]?
Answer: The value was 100%.

Question: And the “% Prodrug Remaining” value [6]?
Answer: The value was 100%.

Question: What about the “% Prodrug Remaining” value [7] of the same compound?
Answer: The value was 100%.

Question: And the “% Prodrug Remaining” value [8]?
Answer: Its value is 100%.

Question: With `COc1ccc2c3c1O[C@H]1C[C@@H](OC(=O)Nc4ccc(C(=O)O)cc4)C=C[C@@]31CCN(C)C2` [Galantamine para amino benzoic acid carbamate] as the compound, how does the IC50 [1, 4] read?
Answer: The IC50 was 32 µM.

Question: What about the “% Prodrug Remaining” value [5] of the same compound?
Answer: Its value is 100-%.

Question: What about the “% Prodrug Remaining” value [6] of the same compound?
Answer: Its value is 100%.

Question: What about the “% Prodrug Remaining” value [7] of the same compound?
Answer: The value was 100%.

Question: What about the “% Prodrug Remaining” value [8] of the same compound?
Answer: The value was 100%.

Question: What does the source list for `COc1ccc2c3c1O[C@H]1C[C@@H](OC(=O)N[C@@H](Cc4ccccc4)C(=O)O)C=C[C@@]31CCN(C)C2` [Galantamine phenylalanine carbamate, galantamine-(S)-phenylalanine carbamate trifluoroacetate]?
Answer: % Prodrug Remaining [5]: 94.7%; % Prodrug Remaining [6]: 94.7%; % Prodrug Remaining [7]: 95.9%; % Prodrug Remaining [8]: 95.6%

Question: With “galantamine (glutaryl-PABA) ester trifluoroacetate [Galantamine [glutaryl-PABA] ester]” as the compound, how does the “% Prodrug Remaining” value (FaSSIF (pH 6.5), 37 deg. C., 0 hours) read?
Answer: Its value is 96%.

Question: What about the “% Prodrug Remaining” value (FaSSIF (pH 6.5), 37 deg. C., 2 hour) of the same compound?
Answer: Its value is 86%.

Question: What about the “% Prodrug Remaining” value (FeSSIF (pH 6.5), 37 deg. C., 0 hours) of the same compound?
Answer: Its value is 85%.

Question: And the “% Prodrug Remaining” value (FeSSIF (pH 6.5), 37 deg. C., 2 hours)?
Answer: The value was 90%.

Question: With `COc1ccc2c3c1O[C@H]1C[C@@H](OC(=O)Nc4ccc(C(=O)O)cn4)C=C[C@@]31CCN(C)C2` [Galantamine para-amino nicotinic acid carbamate] as the compound, how does the IC50 [1, 4] read?
Answer: Its IC50 is 55 µM.

Question: What about the “% Prodrug Remaining” value [5] of the same compound?
Answer: The value was 100%.

Question: What about the “% Prodrug Remaining” value [6] of the same compound?
Answer: The value was 100%.

Question: And the “% Prodrug Remaining” value [7]?
Answer: The value was 100%.

Question: What about the “% Prodrug Remaining” value [8] of the same compound?
Answer: Its value is 100%.

Question: For `COc1ccc2c3c1O[C@H]1C[C@@H](OC(=O)[C@@H](N)C(C)C)C=C[C@@]31CCN(C)C2` [Galantamine-(S)-valine ester, galantamine-(S)-valine ester tartrate], which “Total number … Retching” value (ferret; 20 mg/kg p.o. (galantamine free base content), 2 hr. observation, individual ferrets, listed as Galantamine valine ester tartrate) is on record?
Answer: The value was 22 and 0 (6×) and 2 (2×) and 3 and 14.

Question: And the “Total number … Retching” value (ferret; 20 mg/kg p.o., 2 hr. observation, Mean)?
Answer: The value was 3.9.

Question: What about the “Time (min) to onset of: Retching” value (ferret; [11]) of the same compound?
Answer: The value was 35 min and >120 min (6×) and 106 min and 11 min and 9 min and 6 min.

Question: And the “Time (min) to onset of: Vomiting” value (ferret; [11])?
Answer: The value was 44 min and >120 min (9×) and 9 min.

Question: And the “Total number … Vomiting” value (ferret; [11])?
Answer: The value was 1 and 0 (9×) and 3.
